Experimental data reported in publication PMC4104029, “Mechanism of Action of Compound-13: An α1-Selective Small Molecule Activator of AMPK” (Chemistry & Biology, 2014).

How the values were obtained:
[1] = target: T1, fructose-1,6-bisphosphatase-1 (FBP1) (Mus musculus, UniProt Q9QXD6); assay: FBP1 enzyme assay; type: biochemical
T1 construct: made in house; host or cells: E. coli
Protocol: (§1) Figure 1 The AMP Analog C2 Is a Potent AMPK Activator in Cell-Free Assays with Selectivity for α1 Complexes (A) The structure of the endogenous activator of AMPK, AMP; the AMP mimetic, C2; and the classical AMP mimetic, ZMP, and other AMPK activators are shown. […] (B) Recombinant AMPK complexes (α1β1γ1, α2β1γ1, α1β1γ2, and α1β2γ1) expressed in Spodoptera frugiperda were assayed for allosteric activation by AMP or C2. Results are expressed as the increase in activity relative to controls without ligand and represent the mean ± SD for three independent experiments. (C) Enzymes allosterically regulated by AMP (PFK1 and FBP1) or using AMP as a substrate (AMPD1, AK, and 5′-NT) were assayed in the presence of C2 (≤ 100 μM). Enzymes allosterically regulated by AMP were screened for both agonism and antagonism, the latter in the presence of AMP at ≈ EC50. All enzymes were unaffected by [C2] ≤ 100 μM. Representative data are shown for the effects of AMP and C2 on PFK1 and FBP1 activity. Results are representative of three independent experiments conducted on one enzyme preparation. […]

[2] = test system: α1-containing complexes (α1β1γ1, α1β2γ1, and α1β1γ2); assay: AMPK allosteric activation, summary over several complexes; type: biochemical, human; conditions: range over several AMPK complexes, cell-free
Text: We initially compared the ability of C2 and AMP to activate various recombinant human AMPK complexes, expressed in insect cells, in cell-free assays (Figure 1B). As reported previously using rat liver complexes separated by immunoprecipitation ([Salt et al., 1998]), the allosteric activation of α1 complexes by AMP was less than that of α2 complexes. […] Similar results were obtained with other permutations of β and γ subunits in complex with α2 (data not shown). We also tested the effects of C2 and AMP on recombinant human α1β1γ1 and α2β1γ1 complexes expressed in E. coli and obtained similar results (data not shown).
AMPK phosphotransferase activity was assayed in reactions (50 μl) containing 50 mM HEPES, pH 7.4, 10 mM MgCl2, 0.1 mM EGTA, 1 mM DTT, 0.01% BRIJ-35, 100 μM [γ-^32P]ATP (∼250 CPM⋅pmol^−1) and 200 μM AMARA (AMARAASAAALARRR). Reactions were started by the addition of AMPK (5 mU), incubated for 20 min at 30°C and quenched by spotting onto P81 and immersion in 75 mM H3PO4. Washed filters were dried and [^32P] incorporation determined by Cherenkov counting. AMPK activity in cell extracts was determined by immunoprecipitation with AMPKα1 or AMPKα2 antibodies from 50 μg material, as previously described ([Hunter et al., 2011]). […]

[3] = target: T2, 6-phosphofructo-1 kinase (PFK1) (Mus musculus, UniProt P47857); assay: PFK1 enzyme assay; type: biochemical
T2 construct: made in house; host or cells: E. coli
Protocol: as §1

T2 sequence (P47857 whole entry): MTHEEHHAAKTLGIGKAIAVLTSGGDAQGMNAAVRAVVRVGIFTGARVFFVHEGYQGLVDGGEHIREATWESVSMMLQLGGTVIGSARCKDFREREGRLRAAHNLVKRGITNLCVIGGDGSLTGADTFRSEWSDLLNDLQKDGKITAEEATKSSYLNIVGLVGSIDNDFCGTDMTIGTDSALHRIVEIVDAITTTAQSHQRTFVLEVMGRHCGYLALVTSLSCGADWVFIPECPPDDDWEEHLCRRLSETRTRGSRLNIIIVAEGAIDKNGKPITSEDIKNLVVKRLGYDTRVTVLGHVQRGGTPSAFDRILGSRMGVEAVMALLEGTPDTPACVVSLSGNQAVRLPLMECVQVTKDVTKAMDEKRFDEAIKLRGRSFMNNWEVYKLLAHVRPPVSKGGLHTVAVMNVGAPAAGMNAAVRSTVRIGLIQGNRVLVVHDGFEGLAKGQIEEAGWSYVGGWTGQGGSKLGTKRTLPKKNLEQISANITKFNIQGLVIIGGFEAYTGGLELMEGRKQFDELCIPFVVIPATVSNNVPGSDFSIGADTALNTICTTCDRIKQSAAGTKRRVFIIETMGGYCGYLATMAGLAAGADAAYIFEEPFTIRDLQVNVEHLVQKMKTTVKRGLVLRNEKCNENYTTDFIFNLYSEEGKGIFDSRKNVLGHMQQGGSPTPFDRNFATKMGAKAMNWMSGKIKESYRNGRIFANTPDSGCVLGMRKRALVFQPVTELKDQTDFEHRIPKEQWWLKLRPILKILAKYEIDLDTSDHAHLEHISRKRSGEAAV
T1 sequence (Q9QXD6 whole entry): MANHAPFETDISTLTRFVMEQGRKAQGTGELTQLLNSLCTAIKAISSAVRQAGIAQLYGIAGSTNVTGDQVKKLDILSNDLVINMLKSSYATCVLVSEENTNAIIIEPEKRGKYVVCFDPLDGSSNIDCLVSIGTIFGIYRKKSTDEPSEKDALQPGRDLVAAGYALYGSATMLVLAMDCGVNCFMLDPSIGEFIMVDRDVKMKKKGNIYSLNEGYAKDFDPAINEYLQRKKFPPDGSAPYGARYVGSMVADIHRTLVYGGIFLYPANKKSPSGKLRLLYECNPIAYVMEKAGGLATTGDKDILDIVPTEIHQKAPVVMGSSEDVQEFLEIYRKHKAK

| Structure (SMILES) | effect on FBP1 ([1]; concentrations up to 100 μM) | EC50 [2] [nM] | effect on PFK1 ([3]; concentrations up to 100 μM) | IC50 ([1]; read-out: IC50, inhibition of FBP1) [µM] | EC50 ([3]; read-out: EC50, activation of PFK1) [µM] |
| --- | --- | --- | --- | --- | --- |
| O=P(O)(O)c1ccc(-c2cc(O)on2)o1 [Compound C2, 5-(5-hydroxyl-isoxazol-3-yl)-furan-2-phosphonic acid] | no effect | 10 to 30 | no effect | – | – |
| Nc1ncnc2c1ncn2[C@@H]1O[C@H](COP(=O)(O)O)[C@@H](O)[C@H]1O [AMP, reference compound] | – | 2000 to 4000 | – | 5 | 33 |
